PubChem BioAssay AID1996
≈ marks a conversion by molar mass, not a printed value.

Settings: buffer; pH 7.4; 200.0 µM

| SMILES | solubility kinetic [µg/mL] |
| --- | --- |
| O=C(O)CNC(=S)N(Cc1ccc(F)cc1)C1CCCCC1 | > 48.7 |
| COc1cc(/C=C(\C#N)c2nc3ccccc3[nH]2)ccc1O | 4.9 (≈ 16.8 µM) |
| O=S(=O)(c1ccc2c(c1)CCN2)N1CCCC1 | 36.1 (≈ 143 µM) |
| CN(C)c1cccc2c(S(=O)(=O)N3CCCC3)cccc12 | 34 (≈ 112 µM) |
| COc1ccc([N+](=O)[O-])cc1NCC(=O)c1ccc(C)cc1 | 14.2 (≈ 47.3 µM) |
| CN(C)C(=O)Oc1ccc(NC(=O)N2CCOCC2)cc1 | 43.9 (≈ 150 µM) |
| COc1ccccc1/C=C/C(=O)OCC(=O)NC(=O)NC1CCCC1 | 13.8 (≈ 39.8 µM) |
| CCC1(CC)NC(=O)N(CC(=O)Nc2ccc(C)cc2C)C1=O | > 47.6 |
| O=C(CSc1nc2ccccc2o1)NC1CCCC1 | > 41.5 |
| COc1cc(C)ccc1OCC(=O)OCC(=O)NCC1CCCCC1 | > 52.4 |
| CCC(C)[C@H](NC(=O)NCCC1=CCCCC1)C(=O)OC (some centres undefined) | > 44.5 |
| Cc1nc2c(ccc3nc(NC(=O)C4CC4)sc32)s1 | 2.8 (≈ 9.68 µM) |
| N#Cc1nc(-c2ccc(F)cc2)oc1N1CCCCC1 | 0.9 (≈ 3.32 µM) |
| O=C(CCCc1ccccc1)NCc1ccccn1 | 29.2 (≈ 115 µM) |
| CCN(CC)Cc1c(O)ccc2c1O/C(=C\C=C\c1ccccc1)C2=O | 42.2 (≈ 121 µM) |
| CSc1nc(C)cc(Oc2ccc(OCC(N)=O)nn2)n1 | > 46.1 |
| CC(=O)Nc1ccc(/C=C/C(=O)c2ccc3c(c2)OCCO3)cc1 | 5.2 (≈ 16.1 µM) |
| O=C1CC(/C=C/c2cccnc2)=Nc2ccccc2N1 | 24.4 (≈ 92.7 µM) |
| N=c1oc2ccc3ccccc3c2cc1C(N)=S | 7.2 (≈ 28.3 µM) |
| CCOc1ccc(NCc2cc3cc(OC)ccc3[nH]c2=O)cc1 | 2.1 (≈ 6.47 µM) |
| COc1ccc(C(=O)NC(C(=O)NCC2CCCO2)C(C)C)cc1 (centres undefined) | > 50.2 |
| COc1ccc(Nc2oc(-c3ccc(OC)cc3)nc2C#N)cc1 | 0.7 (≈ 2.18 µM) |
| O=c1[nH]c(Sc2ccc([N+](=O)[O-])cc2[N+](=O)[O-])nc2ccccc12 | 26.3 (≈ 76.4 µM) |
| CCN1/C(=C/C(=S)Nc2ccccc2)Sc2ccccc21 | 6.7 (≈ 21.4 µM) |

| SMILES | solubility kinetic [µg/mL] |
| --- | --- |
| CCCN(CCC)C(=O)Cc1ccc(F)cc1 | 28 (≈ 118 µM) |
| COc1cccc(CNC(=O)N2CCN(c3ccccc3C)CC2)c1 | 15.3 (≈ 45.1 µM) |
| CC1(C)CC(NC(=O)c2c(N)no[n+]2[O-])CC(C)(C)N1 | > 42.5 |
| COc1ccccc1NC(=O)c1ccc2c(c1)CCN2S(C)(=O)=O | > 52 |
| O=C1NC(=O)N(Cc2ccccc2)C(=O)/C1=C/C=C/c1ccco1 | 8.8 (≈ 27.3 µM) |
| CC(C)c1cc(=O)n2c(nc3ccccc32)[nH]1 | > 34.1 |
| CC(=O)CSc1ccc(-c2nc3cc(C)c(C)cc3[nH]2)cn1 | 3.9 (≈ 12.5 µM) |
| CCOC(=O)COc1nc(-c2ccc(Cl)cc2)cc(-c2ccco2)c1C#N | < 0.4 |
| Cn1cc(C=O)c2ccccc21 | > 23.9 |
| CN(Cc1ccccc1)C(=O)COc1ccc2ccccc2c1 | < 0.7 |
| Oc1ccc(Nc2nc(-c3ccccc3F)nc3ccccc23)cc1 | 1.4 (≈ 4.23 µM) |
| CC(CCc1ccccc1)NC(=O)C1CC1 (centres undefined) | > 32.6 |
| O=c1cc(O)c2sc(Nc3ccc(F)cc3)nc2[nH]1 | 0.3 (≈ 1.08 µM) |
| CCC(C)NC(=O)CSc1ccc(S(=O)(=O)N(C)C2CCCCC2)cn1 (centres undefined) | 59.4 (≈ 149 µM) |
| CC(=O)Nc1cc(C)c2nc(NC(C)=O)sc2c1 | 25.7 (≈ 97.6 µM) |
| CC1Cc2ccccc2N1C(=O)c1ccc2c(c1)OCO2 (centres undefined) | > 42.2 |
| COCC(C)N1CC(O)=C(c2nc(-c3ccc(Cl)cc3)cs2)C1=N (centres undefined) | 1.3 (≈ 3.57 µM) |
| COc1ccc(NC(=O)C(=O)NCCCn2ccnc2)cc1 | 43.1 (≈ 143 µM) |
| CC(C)CCC(CCN1CCCC1)c1ccc2c(c1)OCO2.O=C(O)C(=O)O (centres undefined) | 48.4 |
| COCCCNC(=S)Nc1cc(C)c(C)cc1C | > 40 |
| COc1ccc(N2CCOCC2)c(NC(=O)c2cccs2)c1 | 47.7 (≈ 150 µM) |
| CCOCCCNC(=O)C1CC(=O)N(CCc2ccccc2)C1 (centres undefined) | 41.7 (≈ 131 µM) |
| O=C(C1CC1)N1CCN(c2ccc([N+](=O)[O-])cc2-n2cccc2)CC1 | 6.3 (≈ 18.5 µM) |
| Cc1c(C)n(CCCN(C)C)c2ncnc(Nc3ccccc3)c12 | > 48.5 |

| SMILES | solubility kinetic [µg/mL] |
| --- | --- |
| COc1ccccc1/C=[N+](\[O-])C1SC(=S)N(C)C1(C)C (centres undefined) | > 46.6 |
| Cc1nc(NC(=O)CN2CCOCC2)sc1C(=O)N(C)C | 40 (≈ 128 µM) |
| COc1ccc(NC(=O)CN(C)C(=O)Cc2ccc3c(c2)CCC3)cc1 | 12.2 (≈ 34.6 µM) |
| COC(=O)c1ccccc1NC(=O)CN1CCC(C)CC1 | 30.8 (≈ 106 µM) |
| CC(C)Cc1ccc(S(=O)(=O)Nc2cccnc2)cc1 | 14.3 (≈ 49.2 µM) |
| NC(=O)c1ccccc1OCC(=O)Nc1ccc2c(c1)CCC2 | 9.5 (≈ 30.6 µM) |
| CCCCNC(=O)OCCSCCS(=O)(=O)c1ccc(Cl)cc1 | 0.9 (≈ 2.37 µM) |
| CC(C)(C)C1CCCCC1NC(=O)c1ccncc1 (centres undefined) | 4.1 (≈ 15.7 µM) |
| O=C(COC(=O)c1ccc[nH]c1=O)Nc1ccc(N2CCCCC2)cc1 | > 53.3 |
| Cc1cccc(NS(=O)(=O)Cc2ccccc2)c1C | 35.6 (≈ 129 µM) |
| O=C(COC(=O)C1CC2CCCC(C1)C2=O)Nc1ccccc1 (centres undefined) | 46.5 (≈ 147 µM) |
| O=C(Cc1ccc(Cl)cc1Cl)Nc1ccncc1 | 31 (≈ 110 µM) |
| O=C(c1ccccc1)C(O)C(c1ccccc1)N1CCOCC1 (centres undefined) | > 46.7 |
| Fc1ccc(C2c3cccn3CCN2C(=S)Nc2cccc(F)c2)cc1 (centres undefined) | 5.1 (≈ 13.8 µM) |
| CCN(Cc1ccccc1)C(=O)COc1ccccc1 | > 40.4 |
| O=C(COC(=O)c1ccc(F)cc1Cl)NC1CCCCCCC1 | 21.2 (≈ 62 µM) |
| COC(=O)C1=C(C)NC(=O)NC1c1ccccc1Cl (centres undefined) | 18.5 (≈ 65.9 µM) |
| CCC(=O)N(Cc1cc(=O)[nH]c2ccccc12)c1ccccc1 | > 46 |
| CCCCC(=O)N=c1sc2c(OC)ccc(OC)c2n1C | < 0.3 |
| O=C1CCCN1C(=O)COc1cc(F)ccc1[N+](=O)[O-] | > 42.3 |
| c1ccc(CC2CCCCN2)cc1 (centres undefined) | 7.7 (≈ 43.9 µM) |
| O=C(Cc1ccc([N+](=O)[O-])cc1)NC(C(=O)[O-])C(O)c1cccc([N+](=O)[O-])c1.[Na+] (centres undefined) | > 61.7 |
| O=C(CCNC(=O)c1ccco1)NCc1ccc(F)cc1 | > 43.5 |
| O=c1c2[nH]c3cccc(Cl)c3c2ncn1CC1CCCO1 (centres undefined) | 7.4 (≈ 24.4 µM) |

| SMILES | solubility kinetic [µg/mL] |
| --- | --- |
| Cl.O=C(CN1CCCCC1)c1ccc2c(c1)OCO2 | > 42.6 |
| COc1ccccc1NC(=O)COc1ccc2ccccc2c1 | 2.5 (≈ 8.13 µM) |
| CCN(CC)CCC/C(=N\O)C(O)(c1ccccc1)c1ccccc1 | > 51.1 |
| CC(C)[C@H](NC(=O)c1ccccc1Cl)C(=O)OCC(=O)Nc1ccc(S(=O)(=O)N2CCOCC2)cc1 | 40.3 (≈ 74.9 µM) |
| O=C(NC(=S)Nc1ccccc1C(=O)O)c1ccc2ccccc2c1 | 38.2 (≈ 109 µM) |
| Cc1ccc2[nH]c(=O)c3cc(C(=O)NCCC(C)C)sc3c2c1 | < 0.4 |
| CCCN1CCC(NC(=O)Nc2cccc3ccccc23)CC1 | > 46.7 |
| CC(C)(C)C(=O)Nc1sc2c(c1C(=O)Nc1ccccn1)CCCC2 | < 0.3 |
| CS(=O)(=O)CCSc1ncccc1C(=O)NCc1cccs1 | 53.1 (≈ 149 µM) |
| COc1cc(CNc2ccc(N3CCCC3)cc2)cc(Cl)c1OC | 9.7 (≈ 28 µM) |
| O=c1cc(COc2ncnc3ccccc23)nc2sccn12 | > 46.5 |
| CCOC(=O)c1sc(NC(=O)c2ccc3nc[nH]c3c2)nc1C | 3.7 (≈ 11.2 µM) |
| CN(C)C(CNc1ncnc2ccccc12)c1c(F)cccc1Cl (centres undefined) | 49.4 (≈ 143 µM) |
| CC(=O)c1c(OCC(=O)N(C)C2CCCCC2)ccc2c(C)cc(=O)oc12 | > 55.7 |
| CCN(CC)S(=O)(=O)c1cc(NC(=O)CCc2c(C)noc2C)ccc1C | > 59 |
| O=C(COc1ccc(Cl)cc1)NCc1ccccc1 | 25.6 (≈ 92.8 µM) |
| CCOc1cc(C(=O)NC(C)CCc2ccccc2)cc(OCC)c1OCC (centres undefined) | 0.8 (≈ 2.08 µM) |
| O=C(CN1CCc2ccccc2C1)Nc1ccccc1F | 39.4 (≈ 139 µM) |
| O=C(NCc1ccco1)c1cc(S(=O)(=O)NC2CC2)ccc1Br | > 59.9 |
| Nc1cc(=O)[nH]c(SCc2ccc(Cl)cc2Cl)n1 | 1 (≈ 3.31 µM) |
| CN(C)/C=C/C(=O)c1cnc(-c2ccccn2)s1 | > 38.9 |
| c1ccc(-n2cnc3ccccc32)nc1 | 26.3 (≈ 135 µM) |
| Cn1c(=O)[nH]c2ncn(C)c2c1=O | > 27 |
| O=C(O)CNC(=S)N(Cc1ccccc1)Cc1cccs1 | > 48.1 |

| SMILES | solubility kinetic [µg/mL] |
| --- | --- |
| CC(=O)Nc1ccc(S(=O)(=O)N2CCN3CCCC3C2)cc1 (centres undefined) | > 48.5 |
| CC(C)/C(C=O)=C(/NC1CCCCC1)c1ccccc1 | 0.9 (≈ 3.32 µM) |
| Cc1cccc(NC(=O)Nc2ccccc2[N+](=O)[O-])n1 | 0.3 (≈ 1.1 µM) |
| COCCNC(=O)c1cccc(NC(=O)C2=C(C)OCCS2)c1 | > 50.5 |
| O=C(COC(=O)c1cc(S(=O)(=O)N2CCOCC2)ccc1F)Nc1ccc2c(c1)OCO2 | 54.8 (≈ 117 µM) |
| COc1ccccc1CNC(=O)C(=O)Nc1nccs1 | 6 (≈ 20.6 µM) |
| CCOC(=O)C(=O)Nc1sc(C(=O)N(CC)CC)c(C)c1C#N | > 50.6 |
| Cc1cc(C)cc(OCC(=O)OCC(=O)NC2CC2)c1 | > 41.6 |
| O=C(CSc1nc2ccc(Cl)cc2[nH]1)NC1CCCC1 | 9.3 (≈ 30 µM) |
| O=C1c2ccccc2NC(c2ccc(F)cc2)N1Cc1ccccc1 (centres undefined) | 1.4 (≈ 4.21 µM) |
| Cc1ccc(S(=O)(=O)Nc2ccc3ccccc3n2)cc1 | 33.5 (≈ 112 µM) |
| CC(C)N(C(=S)Nc1cccc(C(F)(F)F)c1)C(C)c1ccccn1 (centres undefined) | 6.7 (≈ 18.2 µM) |
| Cc1onc(-c2c(Cl)cccc2Cl)c1C(=O)Nc1nccs1 | 4.7 (≈ 13.3 µM) |
| N#Cc1ccc(NC(=O)CN2CCN(c3ccccn3)CC2)cc1 | 16.4 (≈ 51 µM) |
| COc1ccc(N2C(=O)c3ccccc3C2O)cc1 (centres undefined) | > 38.3 |
| O=C(NCCN1CCOCC1)c1ccc(Cl)c([N+](=O)[O-])c1 | 41.4 (≈ 132 µM) |
| O=C(Cc1c(F)cccc1Cl)N(Cc1ccccc1)c1ccccn1 | 37.3 (≈ 105 µM) |
| O=C(Nc1ccccc1C(=O)NCCCN1CCOCC1)c1ccccc1 | > 55.1 |
| CCn1c(C)c(C)c2cc(C(=O)NC3CCCCCC3)ccc21 | 0.5 (≈ 1.6 µM) |
| COC(=O)Cn1cnc2c(oc3ccccc32)c1=O | > 38.7 |
| CNc1nc(-c2cccs2)cc(C(F)(F)F)c1C#N | < 0.2 |
| O=C(O)CC1(CC(=O)NCc2ccc(F)cc2)CCCCC1 | > 46.1 |
| CCc1ccc(CNCc2cccs2)cc1.Cl | 23.9 |
